Results published in publication PMC2362650, “Phase I and pharmacokinetic study of the topoisomerase II catalytic inhibitor fostriecin” (British Journal of Cancer, 1999).

How the values were obtained:
[1] = Plasma and urine pharmacokinetics (HPLC-UV) in patients after 60-min IV infusion; type: in vivo, human; conditions: patients who received 12.2 mg m-2 (and above) fostriecin
Source text: Fostriecin (CI-920) is a topoisomerase (topo) II catalytic activity inhibitor (Boritzki et al, 1988) (Figure 1). This novel class of topo II-targeting drugs is considered of potential value for treatment of patients with tumours resistant to classic topo II poisons, including anthracyclines and podophyllotoxins (Cummings and Smyth, 1993). The nuclear enzyme topo II is essential for the regulation of DNA conformation (reviewed in Osheroff et al, 1991). Central in its action is the formation of a complex with DNA. Stabilization of this complex by topo II poisons induces DNA damage and cell death (Froelich-Ammon and Osheroff, 1995). Decreased complex formation due to decreased topo II levels is considered to be an important mechanism of tumour-resistance to topo II poisons (Beck and Danks, 1991). The topo II catalytic inhibitor fostriecin is expected to have increased activity against tumour cells with low topo II levels and this was confirmed in in vitro studies (De Jong et al, 1991). […] Because of increased toxi- city of fostriecin in dogs compared to mice, a dose below one-third of the one-tenth mouse equivalent LD10, 2 mg m-2 day-1, was chosen as starting dose in humans (Clinical Brochure Fostriecin, 1991). […] We also performed an analysis of the human pharmacokinetics of fostriecin and ex vivo experiments to investigate if the plasma drug concentrations achieved were sufficient to inhibit a tenipo- side-resistant tumour cell line. The maximum tolerated dose (MTD) of fostriecin could not be established because drug supply was stopped prematurely. However, results of this study may provide a basis for continued clinical development of this agent. PATIENTS AND METHODS Patient selection, drug administration and evaluation Patient eligibility criteria were: histologically confirmed diagnosis of a solid tumour, no longer amenable to established forms of treatment; age 18-75 years; Eastern Cooperative Oncology Group (ECOG) performance status 2; life expectancy 12 weeks; no Phase I and pharmacokinetic study of the topoisomerase II catalytic inhibitor fostriecin RS de Jong1, NH Mulder1, DRA Uges2, DTh Sleijfer1, FJP Hoppener4, HJM Groen3, PHB Willemse1, WTA van der Graaf1 and EGE de Vries1 Departments of 1Medical Oncology, 2Pharmacy and Toxicology, and 3Pulmonary Diseases, University Hospital Groningen, The Netherlands; 4EORTC New Drug Development Office, Amsterdam, The Netherlands Summary We conducted a phase I and pharmacokinetic study of the topoisomerase II catalytic inhibitor fostriecin. Fostriecin was administered intravenously over 60 min on days 1-5 at 4-week intervals. Dose was escalated from 2 mg m-2 day-1 to 20 mg m-2 day-1 in 20 patients. Drug pharmacokinetics was analysed with high performance liquid chromatography with UV-detection. Plasma collected during drug administration was tested in vitro for growth inhibition of a teniposide-resistant small-cell lung cancer (SCLC) cell line. The predominant toxicities were elevated liver transaminases (maximum common toxicity criteria (CTC) grade 4) and serum creatinine (maximum CTC grade 2). […] Duration of elevated alanine-amino transferase (ALT) was dose-limiting in one patient at 20 mg m-2. Other frequent toxicities were grade 1-2 nausea/vomiting, fever and mild fatigue. […] A metabolite, most probably dephosphorylated fostriecin, was detected in plasma and urine. […] However, further escalation seems possible and is warranted to achieve potentially effective drug levels. Fostriecin has a short plasma half-life and longer duration of infusion should be considered. […]

GLC4/VM20x = test system: GLC4/VM20x; design: method as in Withoff et al, 1996; conditions: ref Withoff et al, 1996; cited from earlier work

C[C@@](O)(/C=C/[C@H]1CC=CC(=O)O1)[C@H](O)C[C@@H](O)\C=C/C=C\C=C\CO [dephosphorylated fostriecin]
metabolite in plasma and urine [1]: detected

COc1cc([C@@H]2c3cc4c(cc3[C@@H](O[C@@H]3O[C@@H]5CO[C@@H](c6cccs6)O[C@H]5[C@H](O)[C@H]3O)[C@H]3COC(=O)[C@H]23)OCO4)cc(OC)c1O [teniposide, reference compound]
acquired resistance of GLC4/VM20x compared to GLC4 (GLC4/VM20x): 20 fold
